According to patent US12171230B2, “Herbicidal compositions” (Bayer Aktiengesellschaft, priority 2018, dated 2024):

Columns and labels:
Assay type in all cases: in vivo
Poa annua = assay: Post-emergence herbicidal action against Poa annua
Method in brief: (§1)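 Pot-grown plants, three weeks old at the three-leaf stage, received foliar sprays of various dosages. Visual assessment relative to untreated plants followed 3 to 4 weeks later.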

Veronica hederifolia = assay: Post-emergence herbicidal action against Veronica hederifolia
Lamium purpureum = assay: Post-emergence herbicidal action against Lamium purpureum
Method in brief: as §1

Matricaria inodora = assay: Post-emergence herbicidal action against Matricaria inodora
Bromus sterilis [1] = assay: Post-emergence herbicidal action against Bromus sterilis
Method in brief: (§2)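 Dose unit: g a.i./ha (100% active). Scoring in days after application (DAT). E^A = sum of single-application effects; E^C = Colby expected value.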

Alopecurus myosuroides [2] = assay: Post-emergence herbicidal action against Alopecurus myosuroides
Method in brief: as §2

Centaurea cyano = assay: Post-emergence herbicidal action against Centaurea cyano; details: for Herbicidal action against Centaurea cyanus: 50 g of a.i./ha
Method in brief: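 Formulations (spray powders or emulsion concentrates) applied at various doses onto foliage using 300 to 800 l/ha water; plants treated at three-leaf stage, three weeks post-sowing in sandy loam under greenhouse conditions.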

Lolium rigidum [3] = assay: Post-emergence herbicidal action against Lolium rigidum
Method in brief: as §2

Phalaris minor = assay: Post-emergence herbicidal action against Phalaris minor
Galium aparine = assay: Post-emergence herbicidal action against Galium aparine
Method in brief: as §1

[4] = test system: Lolium rigidum (resistant biotype); assay: Post-emergence herbicidal action against Lolium rigidum (resistant biotype)
Bromus sterilis [5] = assay: Post-emergence herbicidal action against Bromus sterilis; remark: listed apart in the source
Viola tricolor = assay: Post-emergence herbicidal action against Viola tricolor
Lolium rigidum [6] = assay: Post-emergence herbicidal action against Lolium rigidum; remark: listed apart in the source
Alopecurus myosuroides [7] = assay: Post-emergence herbicidal action against Alopecurus myosuroides; remark: listed apart in the source

COc1nn(C(=O)NS(=O)(=O)c2c(C(=O)O)csc2C)c(=O)n1C [(B2.68) Thiencarbazone]
Herbicidal action against Poa annua L. (Poa annua; 14 DAT, 0.5 g of a.i./ha): 10%
Herbicidal action against Poa annua L. (Poa annua; 14 DAT, 1.5 g of a.i./ha): 15%
Herbicidal action against Poa annua L. (Poa annua; 28 DAT, 0.5 g of a.i./ha): 0%
Herbicidal action against Poa annua L. (Poa annua; 28 DAT, 1.5 g of a.i./ha): 25%
Herbicidal action against Veronica hederifolia (Veronica hederifolia; 14 DAT, 0.17 g of a.i./ha): 70%
Herbicidal action against Veronica hederifolia (Veronica hederifolia; 28 DAT, 0.17 g of a.i./ha): 70%
Herbicidal action 28 DAT against Lamium purpureum L. (Lamium purpureum; 0.17 g of a.i./ha): 35%
Herbicidal action against Matricaria inodora (Matricaria inodora; 14 DAT, 0.17 g of a.i./ha): 15%
Herbicidal action against Matricaria inodora (Matricaria inodora; 14 DAT, 0.5 g of a.i./ha): 50%
Herbicidal action against Matricaria inodora (Matricaria inodora; 28 DAT, 0.17 g of a.i./ha): 0%
Herbicidal action 14 DAT against Bromus sterilis (Bromus sterilis [1]; 0.5 g of a.i./ha): 15%
Herbicidal action 28 DAT against Bromus sterilis (Bromus sterilis [1]; 0.5 g of a.i./ha): 15%
Herbicidal action 14 DAT against Bromus sterilis (Bromus sterilis [1]; 1.5 g of a.i./ha): 20%
Herbicidal action 28 DAT against Bromus sterilis (Bromus sterilis [1]; 1.5 g of a.i./ha): 20%
Herbicidal action 14 DAT against Alopecurus myosuroides (Alopecurus myosuroides [2]; 0.5 g of a.i./ha): 40%
Herbicidal action 14 DAT against Alopecurus myosuroides (Alopecurus myosuroides [2]; 1.5 g of a.i./ha): 35%
Herbicidal action 28 DAT against Alopecurus myosuroides (Alopecurus myosuroides [2]; 1.5 g of a.i./ha): 30%
Herbicidal action 14 DAT against Centaurea cyanus (Centaurea cyano; 0.17 g of a.i./ha): 0%
Herbicidal action 28 DAT against Centaurea cyanus (Centaurea cyano; 0.17 g of a.i./ha): 0%
Herbicidal action 28 DAT against Centaurea cyanus (Centaurea cyano; 1.5 g of a.i./ha): 35%
Herbicidal action 14 DAT against Lolium rigidum (Lolium rigidum [3]; 0.5 g of a.i./ha): 60%
Herbicidal action 28 DAT against Lolium rigidum (Lolium rigidum [3]; 0.5 g of a.i./ha): 10%
Herbicidal action 14 DAT against Lolium rigidum (Lolium rigidum [3]; 1.5 g of a.i./ha): 85%
Herbicidal action 28 DAT against Lolium rigidum (Lolium rigidum [3]; 1.5 g of a.i./ha): 50%
Herbicidal action against Phalaris minor (Phalaris minor; 14 DAT, 0.17 g of a.i./ha): 0%
Herbicidal action against Phalaris minor (Phalaris minor; 14 DAT, 0.5 g of a.i./ha): 15%
Herbicidal action against Phalaris minor (Phalaris minor; 14 DAT, 1.5 g of a.i./ha): 10%
Herbicidal action against Phalaris minor (Phalaris minor; 28 DAT, 0.5 g of a.i./ha): 0%
Herbicidal action against Phalaris minor (Phalaris minor; 28 DAT, 1.5 g of a.i./ha): 20%
Herbicidal action 14 DAT against Galium aparine (Galium aparine; 0.17 g of a.i./ha): 60%
Herbicidal action 28 DAT against Galium aparine (Galium aparine; 0.17 g of a.i./ha): 50%
Herbicidal action against Lolium rigidum (resistant biotype) ([4]; 14 DAT, 0.17 g of a.i./ha): 0%
Herbicidal action against Lolium rigidum (resistant biotype) ([4]; 14 DAT, 0.5 g of a.i./ha): 0%
Herbicidal action against Lolium rigidum (resistant biotype) ([4]; 14 DAT, 1.5 g of a.i./ha): 0%
Herbicidal action against Lolium rigidum (resistant biotype) ([4]; 28 DAT, 0.5 g of a.i./ha): 10%
Herbicidal action against Lolium rigidum (resistant biotype) ([4]; 28 DAT, 1.5 g of a.i./ha): 20%

N#Cc1cc(Br)c(O)c(Br)c1 [(B3.1) Bromoxynil]
Herbicidal action against Poa annua L. (Poa annua; 14 DAT, 150 g of a.i./ha): 15%
Herbicidal action against Poa annua L. (Poa annua; 14 DAT, 450 g of a.i./ha): 20%
Herbicidal action against Poa annua L. (Poa annua; 28 DAT, 150 g of a.i./ha): 15%
Herbicidal action against Poa annua L. (Poa annua; 28 DAT, 450 g of a.i./ha): 25%
Herbicidal action against Bromus sterilis (Bromus sterilis [5]; 14 DAT, 50 g of a.i./ha): 0%
Herbicidal action against Bromus sterilis (Bromus sterilis [5]; 14 DAT, 150 g of a.i./ha): 10%
Herbicidal action against Bromus sterilis (Bromus sterilis [5]; 14 DAT, 450 g of a.i./ha): 10%
Herbicidal action against Bromus sterilis (Bromus sterilis [5]; 28 DAT, 150 g of a.i./ha): 15%
Herbicidal action against Bromus sterilis (Bromus sterilis [5]; 28 DAT, 450 g of a.i./ha): 20%
Herbicidal action against Viola tricolor (Viola tricolor; 14 DAT, 50 g of a.i./ha): 15%
Herbicidal action against Viola tricolor (Viola tricolor; 14 DAT, 150 g of a.i./ha): 50%
Herbicidal action against Viola tricolor (Viola tricolor; 14 DAT, 450 g of a.i./ha): 30%
Herbicidal action against Viola tricolor (Viola tricolor; 28 DAT, 50 g of a.i./ha): 25%
Herbicidal action against Viola tricolor (Viola tricolor; 28 DAT, 150 g of a.i./ha): 40%
Herbicidal action against Viola tricolor (Viola tricolor; 28 DAT, 450 g of a.i./ha): 15%
Herbicidal action against Veronica hederifolia (Veronica hederifolia; 14 DAT, 150 g of a.i./ha): 0%
Herbicidal action against Veronica hederifolia (Veronica hederifolia; 14 DAT, 450 g of a.i./ha): 20%
Herbicidal action against Lamium purpureum L. (Lamium purpureum; 14 DAT, 150 g of a.i./ha): 15%
Herbicidal action against Lamium purpureum L. (Lamium purpureum; 14 DAT, 450 g of a.i./ha): 40%
Herbicidal action against Lamium purpureum L. (Lamium purpureum; 28 DAT, 150 g of a.i./ha): 25%
Herbicidal action against Lamium purpureum L. (Lamium purpureum; 28 DAT, 450 g of a.i./ha): 25%
Herbicidal action against Matricaria inodora (Matricaria inodora; 14 DAT, 50 g of a.i./ha): 40%
Herbicidal action against Matricaria inodora (Matricaria inodora; 14 DAT, 450 g of a.i./ha): 85%
Herbicidal action against Matricaria inodora (Matricaria inodora; 28 DAT, 50 g of a.i./ha): 15%
Herbicidal action against Matricaria inodora (Matricaria inodora; 28 DAT, 450 g of a.i./ha): 80%
Herbicidal action against Lolium rigidum (Lolium rigidum [6]; 14 DAT, 150 g of a.i./ha): 0%
Herbicidal action against Lolium rigidum (Lolium rigidum [6]; 14 DAT, 450 g of a.i./ha): 15%
Herbicidal action against Lolium rigidum (Lolium rigidum [6]; 28 DAT, 150 g of a.i./ha): 10%
Herbicidal action against Lolium rigidum (Lolium rigidum [6]; 28 DAT, 450 g of a.i./ha): 20%
Herbicidal action against Centaurea cyanus (Centaurea cyano; 14 DAT): 30%
Herbicidal action against Centaurea cyanus (Centaurea cyano; 28 DAT): 10%
Herbicidal action against Phalaris minor (Phalaris minor; 14 DAT, 50 g of a.i./ha): 0%
Herbicidal action against Phalaris minor (Phalaris minor; 14 DAT, 150 g of a.i./ha): 10%
Herbicidal action against Phalaris minor (Phalaris minor; 14 DAT, 450 g of a.i./ha): 15%
Herbicidal action against Phalaris minor (Phalaris minor; 28 DAT, 150 g of a.i./ha): 0%
Herbicidal action against Phalaris minor (Phalaris minor; 28 DAT, 450 g of a.i./ha): 15%
Herbicidal action against Alopecurus myosuroides (Alopecurus myosuroides [7]; 14 DAT, 150 g of a.i./ha): 15%
Herbicidal action against Alopecurus myosuroides (Alopecurus myosuroides [7]; 14 DAT, 450 g of a.i./ha): 25%
Herbicidal action against Alopecurus myosuroides (Alopecurus myosuroides [7]; 28 DAT, 150 g of a.i./ha): 15%
Herbicidal action against Alopecurus myosuroides (Alopecurus myosuroides [7]; 28 DAT, 450 g of a.i./ha): 25%
Herbicidal action against Galium aparine (Galium aparine; 14 DAT, 50 g of a.i./ha): 20%
Herbicidal action against Galium aparine (Galium aparine; 14 DAT, 150 g of a.i./ha): 30%
Herbicidal action against Galium aparine (Galium aparine; 14 DAT, 450 g of a.i./ha): 50%
Herbicidal action against Galium aparine (Galium aparine; 28 DAT, 450 g of a.i./ha): 75%
Herbicidal action against Lolium rigidum (resistant biotype) ([4]; 14 DAT, 150 g of a.i./ha): 0%
Herbicidal action against Lolium rigidum (resistant biotype) ([4]; 14 DAT, 450 g of a.i./ha): 15%
Herbicidal action against Lolium rigidum (resistant biotype) ([4]; 28 DAT, 150 g of a.i./ha): 10%
Herbicidal action against Lolium rigidum (resistant biotype) ([4]; 28 DAT, 450 g of a.i./ha): 20%
